Measurements: ChEMBL document CHEMBL4831545, “Hormesis Effect of Berberine against Klebsiella pneumoniae Is Mediated by Up-Regulation of the Efflux Pump KmrA” (J Nat Prod, 2021)

Legend:
[1] = tested on: Klebsiella pneumoniae; test: Hormesis activity against Klebsiella pneumoniae assessed as increase in antibiotic MIC by measuring chloramphenicol MIC at 3 ug/ml incubated for 12 hrs by OD600 based analysis (reference value: 6.25 ug/ml); type: ADME, organism-based; details: in vivo, dose 3 µg/ml
[2] = tested on: Klebsiella pneumoniae; test: Hormesis activity against Klebsiella pneumoniae deficient in KmrA gene expression assessed as increase in antibiotic MIC by measuring streptomycin MIC at 3 ug/ml incubated for 12 hrs by OD600 based analysis (reference value: 0.78125 ug/ml); type: ADME, organism-based; details: in vivo, dose 3 µg/ml
[3] = tested on: Acinetobacter baumannii; test: Hormesis activity against overnight-compound treated Acinetobacter baumannii assessed as increase in antibiotic MIC by measuring azithromycin MIC at 3 ug/ml incubated for 12 hrs by OD600 based analysis (reference value: 200 ug/ml); type: ADME, organism-based; details: in vivo, dose 3 µg/ml
[4] = tested on: Acinetobacter baumannii; test: Hormesis activity against Acinetobacter baumannii assessed as increase in antibiotic MIC by measuring azithromycin MIC at 3 ug/ml incubated for 12 hrs by OD600 based analysis (reference value: 200 ug/ml); type: ADME, organism-based; details: in vivo, dose 3 µg/ml
[5] = tested on: Enterobacter cloacae; test: Hormesis activity against Enterobacter cloacae assessed as increase in antibiotic MIC by measuring tetracycline MIC at 3 ug/ml incubated for 12 hrs by OD600 based analysis (reference value: 8 ug/ml); type: ADME, organism-based; details: in vivo, dose 3 µg/ml
[6] = tested on: Enterobacter cloacae; test: Hormesis activity against Enterobacter cloacae assessed as increase in antibiotic MIC by measuring ciprofloxacin MIC at 3 ug/ml incubated for 12 hrs by OD600 based analysis (reference value: 0.0390625 ug/ml); type: ADME, organism-based; details: in vivo, dose 3 µg/ml
[7] = tested on: Acinetobacter baumannii; test: Hormesis activity against Acinetobacter baumannii assessed as increase in antibiotic MIC by measuring tetracycline MIC at 3 ug/ml incubated for 12 hrs by OD600 based analysis (reference value: 240 ug/ml); type: ADME, organism-based; details: in vivo, dose 3 µg/ml
[8] = tested on: Acinetobacter baumannii; test: Hormesis activity against overnight-compound treated Acinetobacter baumannii assessed as increase in antibiotic MIC by measuring cefotaxime MIC at 3 ug/ml incubated for 12 hrs by OD600 based analysis (reference value: 12.5 ug/ml); type: ADME, organism-based; details: in vivo, dose 3 µg/ml
[9] = tested on: Enterobacter cloacae; test: Hormesis activity against Enterobacter cloacae assessed as increase in antibiotic MIC by measuring meropenem MIC at 3 ug/ml incubated for 12 hrs by OD600 based analysis (reference value: 0.1953 ug/ml); type: ADME, organism-based; details: in vivo, dose 3 µg/ml
[10] = tested on: Klebsiella pneumoniae; test: Hormesis activity against Klebsiella pneumonia deficient in KmrA gene expression assessed as promotion of bacterial growth at 3 to 6 ug/ml measured for 24 hrs by OD600 based analysis; type: organism-based; details: in vivo, dose 3-6 µg/ml
[11] = tested on: Klebsiella pneumoniae; test: Hormesis activity against overnight compound-treated Klebsiella pneumoniae assessed as increase in antibiotic MIC by measuring azithromycin MIC at 3 ug/ml incubated for 12 hrs by OD600 based analysis (reference value: 1.5625 ug/ml); type: ADME, organism-based; details: in vivo, dose 3 µg/ml
[12] = tested on: Acinetobacter baumannii; test: Hormesis activity against overnight-compound treated Acinetobacter baumannii assessed as increase in antibiotic MIC by measuring streptomycin MIC at 3 ug/ml incubated for 12 hrs by OD600 based analysis (reference value: 400 ug/ml); type: ADME, organism-based; details: in vivo, dose 3 µg/ml
[13] = tested on: Klebsiella pneumoniae; test: Hormesis activity against Klebsiella pneumoniae assessed as promotion of bacterial growth at 3 to 6 ug/ml measured for 24 hrs in presence of efflux pump inhibitor, CCCP by OD600 based analysis; type: ADME, organism-based; details: in vivo, dose 3-6 µg/ml
[14] = tested on: Klebsiella pneumoniae; test: Hormesis activity against overnight compound-treated Klebsiella pneumoniae assessed as increase in antibiotic MIC by measuring atreonamMIC at 3 ug/ml incubated for 12 hrs by OD600 based analysis (reference value: 1.5625 ug/ml); type: ADME, organism-based; details: in vivo, dose 3 µg/ml
[15] = tested on: Klebsiella pneumoniae; test: Hormesis activity against overnight compound-treated Klebsiella pneumoniae deficient in KmrA gene expression assessed as increase in antibiotic MIC by measuring meropenem MIC at 3 ug/ml incubated for 12 hrs by OD600 based analysis (reference value: 0.39625 ug/ml); type: ADME, organism-based; details: in vivo, dose 3 µg/ml
[16] = tested on: Klebsiella pneumoniae; test: Hormesis activity against Klebsiella pneumoniae assessed as increase in antibiotic MIC by measuring ciprofloxacin MIC at 3 ug/ml incubated for 12 hrs by OD600 based analysis (reference value: 0.0390625 ug/ml); type: ADME, organism-based; details: in vivo, dose 3 µg/ml
[17] = tested on: Klebsiella pneumoniae; test: Hormesis activity against overnight compound-treated Klebsiella pneumoniae deficient in KmrA gene expression assessed as increase in antibiotic MIC by measuring atreonamMIC at 3 ug/ml incubated for 12 hrs by OD600 based analysis (reference value: 1.5625 ug/ml); type: ADME, organism-based; details: in vivo, dose 3 µg/ml
[18] = tested on: Klebsiella pneumoniae; test: Hormesis activity against Klebsiella pneumoniae assessed as increase in antibiotic MIC by measuring streptomycin MIC at 3 ug/ml incubated for 12 hrs by OD600 based analysis (reference value: 0.78125 ug/ml); type: ADME, organism-based; details: in vivo, dose 3 µg/ml
[19] = Upregulation of efflux pump regulator gene expression in Klebsiella pneumoniae at 3 ug/ml incubated for 12 hrs by transcriptome analysis; type: ADME; details: dose 3 µg/ml
[20] = tested on: Enterobacter cloacae; test: Hormesis activity against Enterobacter cloacae assessed as promotion of bacterial growth up to 25 ug/ml measured for 24 hrs in presence of efflux pump inhibitor, CCCP and 8 ug/ml tetracycline by OD600 based analysis; type: ADME, organism-based; details: in vivo, dose <=25 µg/ml
[21] = Upregulation of efflux pump regulator promoter activity in Klebsiella pneumoniae assessed as increase in beta-galactosidase activity at 50 ug/ml by LacZ based OD600 analysis relative to control; type: ADME; details: dose 50 µg/ml
[22] = tested on: Klebsiella pneumoniae; test: Hormesis activity against Klebsiella pneumoniae assessed as increase in antibiotic MIC by measuring rifampicin MIC at 3 ug/ml incubated for 12 hrs by OD600 based analysis (reference value: 25 ug/ml); type: ADME, organism-based; details: in vivo, dose 3 µg/ml
[23] = tested on: Acinetobacter baumannii; test: Hormesis activity against Acinetobacter baumannii assessed as increase in antibiotic MIC by measuring atreonamMIC at 3 ug/ml incubated for 12 hrs by OD600 based analysis (reference value: 6.25 ug/ml); type: ADME, organism-based; details: in vivo, dose 3 µg/ml
[24] = tested on: Klebsiella pneumoniae; test: Hormesis activity against overnight compound-treated Klebsiella pneumoniae deficient in KmrA gene expression assessed as increase in antibiotic MIC by measuring ampicillin MIC at 3 ug/ml incubated for 12 hrs by OD600 based analysis (reference value: 12.5 ug/ml); type: ADME, organism-based; details: in vivo, dose 3 µg/ml
[25] = tested on: Klebsiella pneumoniae; test: Hormesis activity against Klebsiella pneumoniae deficient in KmrA gene expression assessed as increase in antibiotic MIC by measuring tetracycline MIC at 3 ug/ml incubated for 12 hrs by OD600 based analysis (reference value: 6 ug/ml); type: ADME, organism-based; details: in vivo, dose 3 µg/ml
[26] = tested on: Klebsiella pneumoniae; test: Hormesis activity against overnight compound-treated Klebsiella pneumoniae assessed as increase in antibiotic MIC by measuring ciprofloxacin MIC at 3 ug/ml incubated for 12 hrs by OD600 based analysis (reference value: 0.0390625 ug/ml); type: ADME, organism-based; details: in vivo, dose 3 µg/ml
[27] = tested on: Klebsiella pneumoniae; test: Hormesis activity against overnight compound-treated Klebsiella pneumoniae assessed as increase in antibiotic MIC by measuring streptomycin MIC at 3 ug/ml incubated for 12 hrs by OD600 based analysis (reference value: 0.78125 ug/ml); type: ADME, organism-based; details: in vivo, dose 3 µg/ml
[28] = Upregulation of efflux pump regulator promoter activity in Klebsiella pneumoniae assessed as increase in beta-galactosidase activity at 3 to 50 ug/ml by LacZ based OD600 analysis; type: ADME; details: dose 3-50 µg/ml
[29] = tested on: Klebsiella pneumoniae; test: Hormesis activity against Klebsiella pneumoniae deficient in KmrA gene expression assessed as increase in antibiotic MIC by measuring azithromycin MIC at 3 ug/ml incubated for 12 hrs by OD600 based analysis (reference value: 0.78125 ug/ml); type: ADME, organism-based; details: in vivo, dose 3 µg/ml

`COc1ccc2cc3[n+](cc2c1OC)CCc1cc2c(cc1-3)OCO2` [BERBERINE] showed an MIC [1] of 6.25 µg/mL, an MIC [2] of 0.7812 µg/mL and an MIC [3] of 400 µg/mL. For the same molecule, the MIC [4] was 200 µg/mL, the MIC [5] was 8 µg/mL and the MIC [6] was 0.07812 µg/mL. It also gave an MIC [7] of 240 µg/mL, an MIC [8] of 12.5 µg/mL and an MIC [9] of 0.1953 µg/mL. The Activity [10] was “Non-Toxic”, the MIC [11] was 3.125 µg/mL and the MIC [12] was 400 µg/mL. For the same molecule, the Activity [13] was “Non-Toxic”, the MIC [14] was 1.5625 µg/mL and the MIC [15] was 0.3962 µg/mL. For the same molecule, the MIC [16] was 0.07812 µg/mL, the MIC [17] was 1.5625 µg/mL and the MIC [18] was 1.5625 µg/mL. For the same molecule, the Activity [19] was “Toxic”, the Activity [20] was “Non-Toxic” and the “fold change (FC)” value [21] was 2. The MIC [22] was 25 µg/mL, the MIC [23] was 6.25 µg/mL and the MIC [24] was 12.5 µg/mL. The MIC [25] was 6 µg/mL, the MIC [26] was 0.1562 µg/mL and the MIC [27] was 3.125 µg/mL. For the same molecule, the Activity [28] was “Toxic” and the MIC [29] was 0.7812 µg/mL.
